The source made the active and inactive calls. The rule behind the calls is not given here.
How the values were obtained:
[1] = molecular target: Cystic fibrosis transmembrane conductance regulator (Homo sapiens, UniProt P13569); assay: HBE-TECC (Human Bronchial Epithelial- Trans-Epithelial Current Clamp) assay
[2] = molecular target: Adenosine receptor A3 (Homo sapiens) (UniProt P0DMS8); assay: A3 (h) Eurofins-Cerep binding assay; design: ligand concentration 0.15 nM; settings: filed as agonist, Compound concentration 10.0 uM
[3] = molecular target: Beta-2 adrenergic receptor (Homo sapiens) (UniProt P07550); assay: Beta2 (h) Eurofins-Cerep binding assay; design: ligand concentration 0.3 nM; settings: filed as antagonist, Compound concentration 10.0 uM
[4] = molecular target: D(1A) dopamine receptor (Homo sapiens) (UniProt P21728); assay: D1 (h) Eurofins-Cerep binding assay; design: ligand concentration 0.3 nM; settings: filed as antagonist, Compound concentration 10.0 uM
[5] = molecular target: Tumor necrosis factor (Homo sapiens) (UniProt P01375); assay: TNF-alpha (h) Eurofins-Cerep binding assay; design: ligand concentration 0.1 nM; settings: filed as agonist, Compound concentration 10.0 uM
Tumor necrosis factor (Homo sapiens), sequence (P01375 whole entry): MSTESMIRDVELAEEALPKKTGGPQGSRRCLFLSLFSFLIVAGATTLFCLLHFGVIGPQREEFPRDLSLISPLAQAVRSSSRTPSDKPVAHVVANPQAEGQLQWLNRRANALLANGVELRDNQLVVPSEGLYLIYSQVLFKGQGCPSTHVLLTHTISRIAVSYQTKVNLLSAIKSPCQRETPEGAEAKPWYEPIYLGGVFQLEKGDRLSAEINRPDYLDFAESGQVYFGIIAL

[6] = molecular target: Vasoactive intestinal polypeptide receptor 1 (Homo sapiens) (UniProt P32241); assay: VPAC1 (VIP1) (h) Eurofins-Cerep binding assay; settings: filed as agonist, Compound concentration 10.0 uM
Rattus norvegicus = organism: Rattus norvegicus; assay: SKCa channel Eurofins-Cerep binding assay; design: ligand concentration 0.007 nM; settings: filed as antagonist, Compound concentration 10.0 uM
[7] = molecular target: Sodium- and chloride-dependent GABA transporter 1 (Rattus norvegicus) (UniProt P23978); assay: GABA transporter Eurofins-Cerep binding assay; design: ligand concentration 10 nM; settings: filed as antagonist, Compound concentration 10.0 uM
[8] = molecular target: AP2-associated protein kinase 1 (Homo sapiens) (UniProt Q2M2I8); settings: Compound concentration 1000.0 nM
[9] = molecular target: RAC-beta serine/threonine-protein kinase (Homo sapiens) (UniProt P31751); settings: Compound concentration 1000.0 nM
[10] = molecular target: Peripheral plasma membrane protein CASK (Homo sapiens) (UniProt O14936); settings: Compound concentration 1000.0 nM
Peripheral plasma membrane protein CASK (Homo sapiens), sequence (O14936 whole entry): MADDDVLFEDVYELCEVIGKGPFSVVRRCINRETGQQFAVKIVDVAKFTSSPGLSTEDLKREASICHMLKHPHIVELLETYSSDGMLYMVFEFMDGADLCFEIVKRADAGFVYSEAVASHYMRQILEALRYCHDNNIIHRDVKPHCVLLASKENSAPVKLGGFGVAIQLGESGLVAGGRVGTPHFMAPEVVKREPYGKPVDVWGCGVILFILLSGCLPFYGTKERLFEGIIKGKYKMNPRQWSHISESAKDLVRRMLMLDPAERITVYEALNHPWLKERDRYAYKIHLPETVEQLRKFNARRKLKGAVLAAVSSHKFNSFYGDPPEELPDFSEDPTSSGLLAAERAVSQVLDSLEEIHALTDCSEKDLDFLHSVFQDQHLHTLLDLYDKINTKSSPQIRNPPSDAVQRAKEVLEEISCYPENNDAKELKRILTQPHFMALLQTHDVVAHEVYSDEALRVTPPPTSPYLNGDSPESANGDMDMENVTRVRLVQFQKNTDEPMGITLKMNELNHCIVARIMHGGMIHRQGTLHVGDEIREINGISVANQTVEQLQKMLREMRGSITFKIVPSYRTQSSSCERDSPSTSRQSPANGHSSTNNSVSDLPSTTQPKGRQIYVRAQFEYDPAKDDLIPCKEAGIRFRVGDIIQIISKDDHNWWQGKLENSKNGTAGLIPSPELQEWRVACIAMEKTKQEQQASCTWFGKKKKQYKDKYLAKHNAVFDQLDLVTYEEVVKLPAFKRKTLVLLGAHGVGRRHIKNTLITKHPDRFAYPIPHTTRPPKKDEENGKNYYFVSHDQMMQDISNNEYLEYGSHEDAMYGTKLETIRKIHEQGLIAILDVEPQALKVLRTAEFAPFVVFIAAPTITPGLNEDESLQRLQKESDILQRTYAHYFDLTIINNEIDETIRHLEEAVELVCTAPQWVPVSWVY

[11] = molecular target: Megakaryocyte-associated tyrosine-protein kinase (Homo sapiens) (UniProt P42679); settings: Compound concentration 1000.0 nM
[12] = molecular target: Dual specificity tyrosine-phosphorylation-regulated kinase 1A (Homo sapiens) (UniProt Q13627); settings: Compound concentration 1000.0 nM
[13] = system: Epidermal growth factor receptor (Homo sapiens), P00533 [L858R]; settings: Compound concentration 1000.0 nM
[14] = system: Epidermal growth factor receptor (Homo sapiens), P00533 [L858R,T790M]; settings: Compound concentration 1000.0 nM
[15] = molecular target: Ephrin type-A receptor 8 (Homo sapiens) (UniProt P29322); settings: Compound concentration 1000.0 nM
[16] = molecular target: Ephrin type-B receptor 1 (Homo sapiens) (UniProt P54762); settings: Compound concentration 1000.0 nM
[17] = molecular target: Receptor tyrosine-protein kinase erbB-3 (Homo sapiens) (UniProt P21860); settings: Compound concentration 1000.0 nM
[18] = system: Receptor-type tyrosine-protein kinase FLT3 (Homo sapiens), P36888 [UNDEFINED MUTATION]; settings: Compound concentration 1000.0 nM
[19] = molecular target: Mitogen-activated protein kinase kinase kinase kinase 1 (Homo sapiens) (UniProt Q92918); settings: Compound concentration 1000.0 nM
Mitogen-activated protein kinase kinase kinase kinase 1 (Homo sapiens), sequence (Q92918 whole entry, looked up): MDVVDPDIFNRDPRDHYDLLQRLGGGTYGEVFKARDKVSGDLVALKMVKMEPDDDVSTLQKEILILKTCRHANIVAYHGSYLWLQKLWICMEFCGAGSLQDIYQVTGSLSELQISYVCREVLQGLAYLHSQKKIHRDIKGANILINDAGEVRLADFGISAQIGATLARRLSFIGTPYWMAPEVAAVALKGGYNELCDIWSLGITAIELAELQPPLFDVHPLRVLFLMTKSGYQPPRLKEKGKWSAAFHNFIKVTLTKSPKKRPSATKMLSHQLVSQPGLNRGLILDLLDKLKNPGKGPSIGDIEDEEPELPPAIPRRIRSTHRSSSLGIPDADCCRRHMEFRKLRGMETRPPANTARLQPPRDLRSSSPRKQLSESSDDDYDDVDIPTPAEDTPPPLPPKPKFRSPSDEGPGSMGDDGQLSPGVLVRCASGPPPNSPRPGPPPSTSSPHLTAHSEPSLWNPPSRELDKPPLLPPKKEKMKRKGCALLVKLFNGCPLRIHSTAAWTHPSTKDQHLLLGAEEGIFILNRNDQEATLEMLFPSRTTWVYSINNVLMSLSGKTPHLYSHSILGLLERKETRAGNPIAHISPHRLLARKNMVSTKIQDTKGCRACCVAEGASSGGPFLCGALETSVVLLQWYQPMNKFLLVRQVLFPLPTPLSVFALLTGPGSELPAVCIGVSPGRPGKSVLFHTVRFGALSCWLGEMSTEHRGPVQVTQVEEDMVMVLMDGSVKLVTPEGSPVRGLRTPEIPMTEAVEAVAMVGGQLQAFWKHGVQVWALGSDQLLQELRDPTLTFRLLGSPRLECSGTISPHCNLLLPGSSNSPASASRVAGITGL

[20] = molecular target: Insulin receptor-related protein (Homo sapiens) (UniProt P14616); settings: Compound concentration 1000.0 nM
[21] = molecular target: Myosin light chain kinase 2, skeletal/cardiac muscle (Homo sapiens) (UniProt Q9H1R3); settings: Compound concentration 1000.0 nM
[22] = molecular target: Myosin-IIIb (Homo sapiens) (UniProt Q8WXR4); settings: Compound concentration 1000.0 nM
[23] = molecular target: Serine/threonine-protein kinase 38-like (Homo sapiens) (UniProt Q9Y2H1); settings: Compound concentration 1000.0 nM
[24] = molecular target: Serine/threonine-protein kinase PAK 5 (Homo sapiens) (UniProt Q9P286); settings: Compound concentration 1000.0 nM
[25] = molecular target: Cyclin-dependent kinase 16 (Homo sapiens) (UniProt Q00536); settings: Compound concentration 1000.0 nM
Cyclin-dependent kinase 16 (Homo sapiens), sequence (Q00536 whole entry): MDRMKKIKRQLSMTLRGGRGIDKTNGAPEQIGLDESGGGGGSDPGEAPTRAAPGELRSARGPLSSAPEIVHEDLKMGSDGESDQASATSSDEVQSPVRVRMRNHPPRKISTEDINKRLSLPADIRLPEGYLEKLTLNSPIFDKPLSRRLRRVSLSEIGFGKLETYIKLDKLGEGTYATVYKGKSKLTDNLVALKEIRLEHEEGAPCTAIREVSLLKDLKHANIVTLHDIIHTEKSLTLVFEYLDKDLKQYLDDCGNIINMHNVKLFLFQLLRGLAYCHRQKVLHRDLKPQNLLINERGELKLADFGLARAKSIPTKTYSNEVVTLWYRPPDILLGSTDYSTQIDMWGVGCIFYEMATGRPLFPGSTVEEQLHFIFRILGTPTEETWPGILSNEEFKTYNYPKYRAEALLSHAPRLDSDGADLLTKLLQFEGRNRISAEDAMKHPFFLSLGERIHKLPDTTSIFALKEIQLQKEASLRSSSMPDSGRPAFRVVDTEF

[26] = molecular target: Platelet-derived growth factor receptor beta (Homo sapiens) (UniProt P09619); settings: Compound concentration 1000.0 nM
[27] = system: Phosphatidylinositol 4,5-bisphosphate 3-kinase catalytic subunit alpha isoform (Homo sapiens), P42336 [Q546K]; settings: Compound concentration 1000.0 nM
[28] = molecular target: Serine/threonine-protein kinase PLK4 (Homo sapiens) (UniProt O00444); settings: Compound concentration 1000.0 nM
[29] = molecular target: cGMP-dependent protein kinase 1 (Homo sapiens) (UniProt Q13976); settings: Compound concentration 1000.0 nM
cGMP-dependent protein kinase 1 (Homo sapiens), sequence (Q13976 whole entry): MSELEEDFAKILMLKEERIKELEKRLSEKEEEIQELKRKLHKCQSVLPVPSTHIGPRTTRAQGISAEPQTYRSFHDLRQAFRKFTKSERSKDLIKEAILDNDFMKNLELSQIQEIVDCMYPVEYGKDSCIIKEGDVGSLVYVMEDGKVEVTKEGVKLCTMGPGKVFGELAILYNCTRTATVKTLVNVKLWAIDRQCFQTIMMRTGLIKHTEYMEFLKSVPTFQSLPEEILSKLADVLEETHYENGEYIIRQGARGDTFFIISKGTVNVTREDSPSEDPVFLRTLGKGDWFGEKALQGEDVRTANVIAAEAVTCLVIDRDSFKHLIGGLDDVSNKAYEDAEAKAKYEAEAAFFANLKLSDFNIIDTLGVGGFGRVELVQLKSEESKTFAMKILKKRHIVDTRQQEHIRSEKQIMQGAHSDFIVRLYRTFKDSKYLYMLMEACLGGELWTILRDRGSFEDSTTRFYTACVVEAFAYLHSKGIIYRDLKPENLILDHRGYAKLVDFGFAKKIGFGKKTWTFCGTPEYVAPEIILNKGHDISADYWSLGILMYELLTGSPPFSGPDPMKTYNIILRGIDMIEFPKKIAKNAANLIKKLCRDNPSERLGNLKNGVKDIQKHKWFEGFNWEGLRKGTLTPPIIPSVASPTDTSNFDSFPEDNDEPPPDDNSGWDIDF

[30] = molecular target: cAMP-dependent protein kinase catalytic subunit PRKX (Homo sapiens) (UniProt P51817); settings: Compound concentration 1000.0 nM
[31] = molecular target: Serine/threonine-protein kinase RIO2 (Homo sapiens) (UniProt Q9BVS4); settings: Compound concentration 1000.0 nM
Serine/threonine-protein kinase RIO2 (Homo sapiens), sequence (Q9BVS4 whole entry, looked up): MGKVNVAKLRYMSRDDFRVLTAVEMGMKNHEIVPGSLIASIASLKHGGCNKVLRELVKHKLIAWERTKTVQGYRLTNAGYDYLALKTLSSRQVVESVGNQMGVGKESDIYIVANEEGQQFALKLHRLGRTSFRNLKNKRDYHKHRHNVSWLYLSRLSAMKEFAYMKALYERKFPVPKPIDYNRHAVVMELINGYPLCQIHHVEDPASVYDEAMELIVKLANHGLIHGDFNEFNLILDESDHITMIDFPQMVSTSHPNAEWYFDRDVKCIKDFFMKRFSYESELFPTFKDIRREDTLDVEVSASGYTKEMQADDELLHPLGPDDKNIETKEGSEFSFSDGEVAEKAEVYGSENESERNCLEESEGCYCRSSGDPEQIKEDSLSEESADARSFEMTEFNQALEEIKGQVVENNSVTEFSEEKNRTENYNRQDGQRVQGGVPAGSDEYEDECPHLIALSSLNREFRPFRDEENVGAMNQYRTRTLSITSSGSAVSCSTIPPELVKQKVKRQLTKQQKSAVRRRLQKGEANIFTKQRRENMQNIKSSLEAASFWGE

[32] = molecular target: Ribosomal protein S6 kinase alpha-2 (Homo sapiens) (UniProt Q15349); settings: Compound concentration 1000.0 nM
Ribosomal protein S6 kinase alpha-2 (Homo sapiens), sequence (Q15349 whole entry): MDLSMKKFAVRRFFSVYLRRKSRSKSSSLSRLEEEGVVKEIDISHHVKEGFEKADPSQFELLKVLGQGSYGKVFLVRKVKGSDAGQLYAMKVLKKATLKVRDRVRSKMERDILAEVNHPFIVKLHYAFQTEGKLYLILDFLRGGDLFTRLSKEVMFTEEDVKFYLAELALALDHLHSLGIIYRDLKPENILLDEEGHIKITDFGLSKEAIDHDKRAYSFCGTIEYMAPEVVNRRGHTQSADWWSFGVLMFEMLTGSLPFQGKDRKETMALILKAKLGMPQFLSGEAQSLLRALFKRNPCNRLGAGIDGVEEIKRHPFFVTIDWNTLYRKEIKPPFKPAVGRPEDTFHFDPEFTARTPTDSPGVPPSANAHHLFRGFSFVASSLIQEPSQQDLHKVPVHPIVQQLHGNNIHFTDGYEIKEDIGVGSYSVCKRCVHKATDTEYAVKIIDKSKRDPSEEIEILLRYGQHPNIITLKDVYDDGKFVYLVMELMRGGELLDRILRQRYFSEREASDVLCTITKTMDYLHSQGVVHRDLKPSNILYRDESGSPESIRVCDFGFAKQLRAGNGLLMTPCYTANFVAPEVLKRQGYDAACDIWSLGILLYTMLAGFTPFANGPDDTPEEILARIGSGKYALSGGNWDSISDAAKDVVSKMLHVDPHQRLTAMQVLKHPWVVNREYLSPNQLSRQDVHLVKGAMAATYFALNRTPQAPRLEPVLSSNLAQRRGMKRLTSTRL

[33] = molecular target: SNF-related serine/threonine-protein kinase (Homo sapiens) (UniProt Q9NRH2); settings: Compound concentration 1000.0 nM
[34] = molecular target: Mitogen-activated protein kinase kinase kinase 7 (Homo sapiens) (UniProt O43318); settings: Compound concentration 1000.0 nM
[35] = molecular target: Non-receptor tyrosine-protein kinase TNK1 (Homo sapiens) (UniProt Q13470); settings: Compound concentration 1000.0 nM
[36] = molecular target: Mitogen-activated protein kinase kinase kinase 20 (Homo sapiens) (UniProt Q9NYL2); settings: Compound concentration 1000.0 nM
[37] = molecular target: T1, 5-hydroxytryptamine receptor 3A (Homo sapiens) (UniProt P46098); settings: Compound concentration 10.0 uM
T1 sequence (whole entry): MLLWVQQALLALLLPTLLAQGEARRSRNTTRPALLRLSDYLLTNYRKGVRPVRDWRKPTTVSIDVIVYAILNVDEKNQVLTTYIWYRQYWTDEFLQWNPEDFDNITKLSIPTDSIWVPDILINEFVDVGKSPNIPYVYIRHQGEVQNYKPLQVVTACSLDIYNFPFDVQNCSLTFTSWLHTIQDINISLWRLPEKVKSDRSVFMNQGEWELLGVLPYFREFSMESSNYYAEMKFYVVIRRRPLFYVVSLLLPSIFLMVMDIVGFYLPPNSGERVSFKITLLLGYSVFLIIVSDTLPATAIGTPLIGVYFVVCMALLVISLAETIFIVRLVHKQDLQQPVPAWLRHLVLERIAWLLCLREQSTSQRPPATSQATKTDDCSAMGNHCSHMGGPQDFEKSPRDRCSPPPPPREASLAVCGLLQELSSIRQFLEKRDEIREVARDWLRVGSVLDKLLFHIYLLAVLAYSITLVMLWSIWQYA

[38] = molecular target: Beta-3 adrenergic receptor (Homo sapiens) (UniProt P13945); settings: Compound concentration 10.0 uM
Beta-3 adrenergic receptor (Homo sapiens), sequence (P13945 whole entry, looked up): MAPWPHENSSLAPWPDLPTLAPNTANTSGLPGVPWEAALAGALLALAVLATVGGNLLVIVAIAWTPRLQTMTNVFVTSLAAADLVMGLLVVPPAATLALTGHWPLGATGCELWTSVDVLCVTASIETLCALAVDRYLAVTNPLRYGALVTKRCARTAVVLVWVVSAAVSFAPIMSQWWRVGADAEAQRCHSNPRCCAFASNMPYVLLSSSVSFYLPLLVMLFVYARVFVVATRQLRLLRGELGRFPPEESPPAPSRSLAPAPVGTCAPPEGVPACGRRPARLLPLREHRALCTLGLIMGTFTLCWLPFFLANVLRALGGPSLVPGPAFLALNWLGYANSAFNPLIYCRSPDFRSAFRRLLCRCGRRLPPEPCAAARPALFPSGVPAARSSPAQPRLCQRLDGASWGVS

Row | Structure (SMILES) | EC50 [1] | % Inhibition of Control Specific Binding (Mean n=2) [2] [%] | % Inhibition of Control Specific Binding (Mean n=2) [3] [%] | % Inhibition of Control Specific Binding (Mean n=2) [4] [%] | % Inhibition of Control Specific Binding (Mean n=2) [5] [%] | % Inhibition of Control Specific Binding (Mean n=2) [6] [%] | % Inhibition of Control Specific Binding (Mean n=2) (Rattus norvegicus) [%] | % Inhibition of Control Specific Binding (Mean n=2) [7] [%] | residual activity [8] [%] | residual activity [9] [%] | residual activity [10] [%] | residual activity [11] [%] | residual activity [12] [%] | residual activity [13] [%] | residual activity [14] [%] | residual activity [15] [%] | residual activity [16] [%] | residual activity [17] [%] | residual activity [18] [%] | residual activity [19] [%] | further results
1 | COc1ccc2c(c1)O[C@@H](c1ccc(OC)c(OC)c1)C[C@H]2NC(=O)C1(c2ccc3c(c2)OC(F)(F)O3)CC1 [A-1596586] | 0.028 µM (active) | 63.9 | 7 | 14 | -9.2 | 10.4 | 2.2 | -17.9 | 91 | 100 | 100 | 93 | 80 | 97 | 100 | 82 | 87 | 86 | 76 | 90 | residual activity [20]: 100%; residual activity [21]: 90%; residual activity [22]: 100%; residual activity [23]: 100%; residual activity [24]: 75%; residual activity [25]: 88%; residual activity [26]: 100%; residual activity [27]: 78%; residual activity [28]: 84%; residual activity [29]: 100%; residual activity [30]: 83%; residual activity [31]: 100%; residual activity [32]: 90%; residual activity [33]: 90%; residual activity [34]: 100%; residual activity [35]: 100%; residual activity [36]: 97%; inhibition [37]: -1.13%; inhibition [38]: 3.77%
2 | COc1ccc2c(c1)O[C@H](c1ccc(OC)c(OC)c1)C[C@@H]2NC(=O)C1(c2ccc3c(c2)OC(F)(F)O3)CC1 [A-1596584] | > 3 µM (not active) | 67.7 | 11.6 | 7.4 | -3.3 | 5 | 4 | -15.1 | 100 | 96 | 85 | 100 | 100 | 100 | 96 | 100 | 100 | 92 | 87 | 98 | residual activity [20]: 100%; residual activity [21]: 95%; residual activity [22]: 39%; residual activity [23]: 100%; residual activity [24]: 100%; residual activity [25]: 100%; residual activity [26]: 100%; residual activity [27]: 100%; residual activity [28]: 89%; residual activity [29]: 100%; residual activity [30]: 100%; residual activity [31]: 100%; residual activity [32]: 100%; residual activity [33]: 92%; residual activity [34]: 100%; residual activity [35]: 97%; residual activity [36]: 97%; inhibition [37]: -3.53%; inhibition [38]: -7.53%

From ChEMBL document CHEMBL4507262, “Data for DCP probe A-1596586” (2021)
